Experiments:
Test in all cases: relative viability (nuclei count vs DMSO), 5 days (fraction); higher = more cells survive
Sorafenib + AZD7762 = compound: CNC(=O)c1cc(Oc2ccc(NC(=O)Nc3ccc(Cl)c(C(F)(F)F)c3)cc2)ccn1 [Sorafenib] + NC(=O)Nc1cc(-c2cccc(F)c2)sc1C(=O)N[C@H]1CCCNC1 [AZD7762] (partner 0.2 µM)
Procedure, shortened: (§1)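 Relative viability was taken as the ratio of nuclei in treated wells to nuclei in vehicle wells. Lung cancer cell lines in 1536-well plates received compounds by pin tool one day after seeding, either one drug alone or a fixed anchor-drug dose plus five library-drug doses (not always all listed) in √10 steps. Nuclei were counted on 4× images after 5 days of treatment, and values are medians of duplicate plates.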

Sorafenib + OSI-027 = compound: CNC(=O)c1cc(Oc2ccc(NC(=O)Nc3ccc(Cl)c(C(F)(F)F)c3)cc2)ccn1 [Sorafenib] + COc1cccc2cc(-c3nc([C@H]4CC[C@H](C(=O)O)CC4)n4ncnc(N)c34)[nH]c12 [OSI-027] (partner 0.5 µM)
Procedure, shortened: as §1

Sorafenib + Lapatinib = compound: CNC(=O)c1cc(Oc2ccc(NC(=O)Nc3ccc(Cl)c(C(F)(F)F)c3)cc2)ccn1 [Sorafenib] + CS(=O)(=O)CCNCc1ccc(-c2ccc3ncnc(Nc4ccc(OCc5cccc(F)c5)c(Cl)c4)c3c2)o1 [Lapatinib] (partner 2 µM)
Procedure, shortened: as §1

Sorafenib + Linsitinib = compound: CNC(=O)c1cc(Oc2ccc(NC(=O)Nc3ccc(Cl)c(C(F)(F)F)c3)cc2)ccn1 [Sorafenib] + C[C@]1(O)C[C@@H](c2nc(-c3ccc4ccc(-c5ccccc5)nc4c3)c3c(N)nccn32)C1 [Linsitinib] (partner 1 µM)
Procedure, shortened: as §1

Sorafenib + Dasatinib = compound: CNC(=O)c1cc(Oc2ccc(NC(=O)Nc3ccc(Cl)c(C(F)(F)F)c3)cc2)ccn1 [Sorafenib] + Cc1nc(Nc2ncc(C(=O)Nc3c(C)cccc3Cl)s2)cc(N2CCN(CCO)CC2)n1 [Dasatinib] (partner 0.075 µM)
Procedure, shortened: as §1

Cell Line	relative viability (Sorafenib + AZD7762; first compound 0.253 µM)	relative viability (Sorafenib + AZD7762; first compound 2.53 µM)	relative viability (Sorafenib + AZD7762; first compound 8 µM)	relative viability (Sorafenib + OSI-027; first compound 0.08 µM)	relative viability (Sorafenib + OSI-027; first compound 0.253 µM)	relative viability (Sorafenib + OSI-027; first compound 2.53 µM)	relative viability (Sorafenib + OSI-027; first compound 8 µM)	relative viability (Sorafenib + Lapatinib; first compound 0.08 µM)	relative viability (Sorafenib + Lapatinib; first compound 0.253 µM)	relative viability (Sorafenib + Lapatinib; first compound 2.53 µM)	relative viability (Sorafenib + Lapatinib; first compound 8 µM)	relative viability (Sorafenib + Linsitinib; first compound 0.08 µM)	relative viability (Sorafenib + Linsitinib; first compound 0.253 µM)	relative viability (Sorafenib + Linsitinib; first compound 2.53 µM)	relative viability (Sorafenib + Linsitinib; first compound 8 µM)	relative viability (Sorafenib + Dasatinib; first compound 0.08 µM)	relative viability (Sorafenib + Dasatinib; first compound 0.253 µM)	relative viability (Sorafenib + Dasatinib; first compound 2.53 µM)	relative viability (Sorafenib + Dasatinib; first compound 8 µM)	relative viability (Sorafenib + AZD7762; first compound 0.08 µM)
BEN	0.493	0.741	0.611	0.318	0.326	0.338	0.27	0.857	0.675	0.782	0.614	1.02	0.914	0.886	0.693	0.342	0.255	0.381	0.309	–
NCI-H2085	0.874	1.03	0.604	0.934	0.544	0.704	0.396	–	0.761	0.858	0.717	0.962	0.924	1.07	0.728	0.311	0.271	0.26	0.237	1.04
EMC-BAC-2	0.982	1.15	1.06	0.341	0.358	0.391	0.358	0.924	0.813	0.883	0.879	0.821	0.788	0.838	0.771	0.301	0.268	0.354	0.299	1.12
A-427	0.675	0.715	0.541	0.522	0.511	0.432	0.219	1.04	0.948	1.01	1.06	1.07	1.06	1.03	0.987	0.75	0.671	–	0.31	0.831
LC-2-ad	0.86	0.967	0.769	0.889	–	0.9	0.573	1.05	0.878	0.587	0.314	0.935	0.798	0.673	0.659	0.721	0.376	0.427	0.33	0.942
ChaGo-K-1	0.796	0.845	0.809	0.583	0.397	0.683	0.46	–	–	–	–	–	–	–	–	0.649	0.505	0.577	0.455	0.899
NCI-H1650	–	–	–	0.83	0.599	0.908	0.31	0.96	0.776	0.787	0.224	–	–	–	–	0.366	0.33	0.296	0.172	–
SW 1573	–	–	–	0.79	0.517	0.553	0.21	1.18	0.978	1.12	0.963	0.805	0.786	0.79	0.378	0.752	0.38	0.505	0.213	–
LOU-NH91	0.721	0.876	0.671	0.783	0.713	0.788	0.799	–	0.71	0.829	0.728	1.07	0.973	1.13	0.873	0.692	0.52	0.686	0.361	0.804
NCI-H1944	0.453	0.679	0.31	0.4	0.381	0.436	0.334	0.881	0.763	0.912	0.796	1.21	1.24	1.3	1.09	0.213	0.229	0.245	0.206	0.584
HCC-366	0.283	0.181	0.0837	0.951	0.937	0.866	0.327	1.21	0.859	0.805	1.04	0.66	0.628	0.732	0.463	0.626	0.551	0.639	0.518	0.306
COR-L 105	–	–	–	0.816	0.735	1.05	0.677	0.413	0.393	0.482	0.389	0.853	0.926	0.906	0.985	0.475	0.31	–	0.356	–
SK-MES-1	–	–	–	0.604	0.548	0.5	0.454	0.468	0.465	0.56	0.515	1.1	1.08	1	1.03	0.434	0.276	0.41	0.273	–
NCI-H2023	–	–	–	0.51	0.338	0.387	0.19	–	0.738	0.82	0.244	0.733	0.735	0.669	0.497	0.681	0.485	0.601	0.275	–
NCI-H1755	0.383	0.504	0.312	0.718	0.639	0.746	0.666	1.03	0.999	0.994	0.869	1.03	1.02	0.971	0.743	0.419	0.436	0.409	0.35	0.474
HARA	0.554	0.217	0.315	0.606	0.5	0.619	0.257	0.838	0.625	0.825	0.638	1.13	0.859	0.94	0.927	0.296	0.197	0.248	0.229	0.317
COR-L23	–	–	–	0.874	0.725	0.754	–	1.08	0.795	0.921	0.914	1.05	0.814	0.866	0.531	0.55	0.495	0.514	0.235	–
NCI-H1355	0.713	0.651	0.546	0.459	0.38	0.512	0.336	1.02	0.96	1.11	1.03	0.925	0.823	0.785	0.781	0.74	0.627	0.816	0.54	0.805
NCI-H1437	1.05	1.13	0.539	0.949	0.676	0.8	0.558	0.865	0.654	0.773	0.346	0.989	1	0.657	0.244	0.416	0.288	0.421	0.142	1.23

Cell Line	relative viability (Sorafenib + AZD7762; first compound 0.253 µM)	relative viability (Sorafenib + AZD7762; first compound 2.53 µM)	relative viability (Sorafenib + AZD7762; first compound 8 µM)	relative viability (Sorafenib + OSI-027; first compound 0.08 µM)	relative viability (Sorafenib + OSI-027; first compound 0.253 µM)	relative viability (Sorafenib + OSI-027; first compound 2.53 µM)	relative viability (Sorafenib + OSI-027; first compound 8 µM)	relative viability (Sorafenib + Lapatinib; first compound 0.08 µM)	relative viability (Sorafenib + Lapatinib; first compound 0.253 µM)	relative viability (Sorafenib + Lapatinib; first compound 2.53 µM)	relative viability (Sorafenib + Lapatinib; first compound 8 µM)	relative viability (Sorafenib + Linsitinib; first compound 0.08 µM)	relative viability (Sorafenib + Linsitinib; first compound 0.253 µM)	relative viability (Sorafenib + Linsitinib; first compound 2.53 µM)	relative viability (Sorafenib + Linsitinib; first compound 8 µM)	relative viability (Sorafenib + Dasatinib; first compound 0.08 µM)	relative viability (Sorafenib + Dasatinib; first compound 0.253 µM)	relative viability (Sorafenib + Dasatinib; first compound 2.53 µM)	relative viability (Sorafenib + Dasatinib; first compound 8 µM)	relative viability (Sorafenib + AZD7762; first compound 0.08 µM)
NCI-H2087	1.08	1.02	0.264	0.658	0.556	0.455	0.3	0.958	0.711	1.06	0.611	0.756	0.853	0.956	0.275	1.03	0.744	0.684	0.154	1.39
HOP-62	0.567	0.405	0.207	0.848	0.631	0.759	0.657	0.928	0.872	0.879	0.93	1.14	0.839	0.781	0.49	0.796	0.527	0.584	0.59	–
NCI-H2228	–	–	–	0.626	0.607	–	0.365	1.23	0.936	0.985	0.627	0.682	0.551	0.669	0.596	0.543	0.434	0.465	0.271	–
UMC-11	–	–	–	0.46	0.386	0.454	0.266	1.08	0.874	1.07	0.468	0.991	0.989	0.945	0.687	0.509	0.396	0.357	0.205	–
NCI-H1915	0.51	0.558	0.669	0.659	0.558	0.682	0.512	0.932	0.879	0.943	0.951	1.06	0.952	0.949	1.15	0.326	0.327	0.402	0.273	0.722
NCI-H522	0.556	0.874	0.723	0.649	0.631	0.672	0.552	–	–	–	–	–	–	–	–	0.904	–	0.859	0.772	1.1
LCLC-103H	0.652	0.769	0.843	0.556	0.425	0.528	0.469	–	–	–	–	1.21	0.981	1.12	1.2	0.617	0.424	0.44	0.497	0.778
SW 900	0.571	0.571	0.377	0.842	0.427	0.579	0.49	–	–	–	–	–	–	–	–	0.544	0.481	0.545	0.343	0.675
NCI-H441	0.946	0.841	0.855	0.588	–	0.423	0.297	–	–	–	–	0.563	0.417	0.355	0.302	–	–	0.503	0.308	1.03
NCI-H520	–	–	–	0.352	0.254	0.246	0.246	0.92	0.71	0.919	0.402	1.01	0.905	0.919	0.307	0.231	0.225	0.216	0.174	–
NCI-H2170	0.816	0.824	0.819	0.72	0.681	0.647	0.51	0.279	0.294	0.349	0.39	–	–	–	–	0.771	0.485	0.6	0.518	–
HCC-44	0.938	0.909	–	0.552	0.431	0.741	0.395	0.926	0.919	0.949	0.812	0.68	0.629	–	0.658	–	–	–	–	0.99
NCI-H1703	0.133	0.134	0.106	–	–	–	–	0.716	0.435	0.28	0.221	0.642	0.336	0.142	0.179	–	–	–	–	0.125
NCI-H1563	–	–	–	0.792	0.766	0.687	0.7	1.01	0.92	0.884	0.671	1.08	1.41	1.21	1.16	0.496	0.469	0.478	0.454	–
NCI-H2342	0.409	0.554	0.353	0.676	0.522	0.542	0.482	–	–	–	–	–	–	–	–	0.32	0.27	0.29	0.28	0.589
NCI-H2009	–	–	–	0.629	0.355	0.601	0.303	0.884	0.812	0.968	0.47	1.15	1.11	1.05	1.11	0.346	0.23	0.325	0.16	–
IA-LM	–	–	–	–	–	–	–	0.491	0.358	0.456	0.446	0.456	0.281	0.373	0.436	–	–	–	–	–
SK-LU-1	–	–	–	0.41	0.283	0.345	0.227	0.914	0.735	0.774	0.373	1.03	–	0.932	0.345	0.197	0.184	0.196	0.185	–
NCI-H661	–	–	–	0.759	0.73	0.655	0.483	0.595	0.509	0.446	0.507	0.816	0.57	0.55	0.417	0.978	0.82	0.815	0.215	–

Reference: the supplement of paper PMC10307832
